SMILES strings stand for the structures. Read-outs that look alike come from different tables or passages of the source.

Series [1] can be described thus: Kinematic viscosity measurement of e-liquid products (Example 6). Type of series: physicochemical. How it is done:
Then, the kinematic viscosity of products A, B, C and D is measured.

The format of series [2] is physicochemical. Particulars: for DTA Transformation temperature (exothermic peak, reaction and/or decomposition) / DTA Vaporization temperature (endothermic peak): 25 to 350° C. Here is the method: Thermogravimetric analysis is a thermal analysis method in which the changes of the physical and chemical properties of the materials are measured as a function of the temperature. TGA can yield information on the physical phenomena, such as vaporization or combustion.
Similarly, one can obtain information on chemical phenomena such as dehydration or decomposition. In differential thermal analysis (DTA), the material under study and an inert reference material are exposed to identical thermal cycles. During the analysis, the difference in temperature between the sample and the reference material is recorded. These differences in temperatures monitored versus time relative to the inert reference material provide information on the exothermic or endothermic thermal phenomena undergone by the sample. By integration of the heat flow curve, DTA analysis yields the so-called endothermic enthalpy values when there is energy absorption, or so-called exothermic enthalpy values when energy is released in the form of heat. The endothermic character is connected with a change in the state of the compound (for example, vaporization), while the exothermic character is induced by decomposition reactions or intra- and intermolecular chemical reactions.
The analysis conditions are the following: • test specimen: 50 mg • open crucible under air flow: 100 mL/min • heating ramp: 10° C./min • temperature range: 25 at 350° C. (temperature conditions representative of normal use and of misuse of an electronic cigarette). Between analyses, the apparatus is cleaned by heating at 600° C. under air flow, in order to eliminate any trace of unvaporized residue deposited on the crucible, the arms of the scale, or the walls of the furnace.

Consider `OCCCO` [1,3-propanediol], for which the “Kinematic viscosity at 20° C.” value in series [1] is reported as 52.6 mPa · s. In series [2] (air flow, 10° C./min), the “DTA Transformation temperature (exothermic peak, reaction and/or decomposition)” value was “without any thermal decomposition” and the “DTA Vaporization temperature (endothermic peak)” value (shortened to “DTA Vaporization temperature”) is 189 °C.
With `OCC(O)CO` [Glycerol, glycerol], in series [2] (air flow, 10° C./min), the “DTA residue unvaporized at 250° C.” value was determined as 27.3% and the “DTA Vaporization temperature” value is 260 °C.
On to `CC(O)CO` (stereo not drawn) [Propylene glycol, propylene glycol], for which, in series [2] (air flow, 10° C./min), the “DTA Transformation temperature (exothermic peak, reaction and/or decomposition)” value is on record as “without any thermal decomposition” and the “DTA Vaporization temperature” value was determined as 174 °C. Further, the “DTA Vaporization temperature” value in series [2] (air flow, 10° C./min, listed as propylene glycol) came to 170 °C. Also, the “evaporation temperature lower than that of nicotine” value in series [2] (difference to nicotine) was 16 °C.

Source of the values: patent US20160262443A1, “USE OF A COMPOSITION CONTAINING 1,3-PROPANEDIOL AS E-LIQUID” (priority 2014, published 2016).
